In assay [1] the target is T1, SmoEFGK (Sinorhizobium meliloti, UniProt Q92N02).
T1 construct: gene smoE; native ABC transporter in intact S. meliloti Rm1021 cells grown on mannitol; smoK::Tn5-B20 mutant as control; with ABC transporter, sorbitol/mannitol permease SmoF; ABC transporter, sorbitol/mannitol permease SmoG
In words: […]-mannitol uptake, wild type against smoK mutant. The assay is classed as cell-based. Conditions: labelled compound, 2 µM; cells grown in mannitol and glucose.

Assay [2] addresses T1, SmoEFGK. The assay is described as follows: […]-mannitol uptake competition, intact cells. The assay is classed as cell-based. Particulars: 2 µM 14C-mannitol as tracer, mannitol-grown wild-type Rm1021.
In assay [3] the target is T1, SmoEFGK. The assay is described as follows: […]-mannitol uptake competition, intact cells. Conditions: 2 µM 14C-mannitol as tracer, 10 µM unlabelled maltitol; mannitol-grown wild-type Rm1021. The assay is classed as cell-based.
A further assay deals with T2, MtlK (Sinorhizobium meliloti, UniProt Q92N07).
T2 construct: full length from plasmid pJD02 (mtlK/pCO37) in S. meliloti smoS mutant; cell extract, native gel
The assay is described as follows: in-gel dehydrogenase activity stain, native PAGE. Format: biochemical. Conditions: NAD+, phenazine methosulfate, nitro blue tetrazolium; cell extract.

A further assay concerns the target T3, Frk (Sinorhizobium meliloti, UniProt Q92SC5).
T3 construct: N-terminal 6xHis tag, expressed from pMK48 (pRK7813) in S. meliloti Rm1021, partially purified on Ni-NTA
T3 sequence (Q92SC5 1-308): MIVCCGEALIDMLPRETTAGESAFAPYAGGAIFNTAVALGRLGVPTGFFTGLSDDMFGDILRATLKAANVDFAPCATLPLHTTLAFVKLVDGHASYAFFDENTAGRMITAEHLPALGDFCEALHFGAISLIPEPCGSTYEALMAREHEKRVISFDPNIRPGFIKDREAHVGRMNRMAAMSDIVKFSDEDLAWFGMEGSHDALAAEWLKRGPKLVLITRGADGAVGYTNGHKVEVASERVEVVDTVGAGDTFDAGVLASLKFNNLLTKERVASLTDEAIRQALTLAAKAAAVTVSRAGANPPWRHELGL
In words: PK/LDH-coupled kinase assay, […] nm. Format: biochemical. Particulars: 6 mM fructose, 3 mM ATP, 6 mM MgCl2, HEPES pH 7.5; partially purified.

In another assay the target is T4, SmoS (Sinorhizobium meliloti, UniProt Q92N06).
T4 construct: full length from plasmid pSMc01500 (smoS/pCO37) in S. meliloti smoS mutant; cell extract, native gel
The assay is described as follows: in-gel dehydrogenase activity stain, native PAGE. Conditions: sorbitol as substrate, phenazine methosulfate, nitro blue tetrazolium; cell extract. Format: biochemical.

Some results are limits rather than exact numbers.

From PMC10433430, “The transport of mannitol in Sinorhizobium meliloti is carried out by a broad-substrate polyol transporter SmoEFGK and is affected by the ability to transport and metabolize fructose” (Microbiology, 2023) come the findings set out here.

T1 sequence (Q92N03 entry or part of it): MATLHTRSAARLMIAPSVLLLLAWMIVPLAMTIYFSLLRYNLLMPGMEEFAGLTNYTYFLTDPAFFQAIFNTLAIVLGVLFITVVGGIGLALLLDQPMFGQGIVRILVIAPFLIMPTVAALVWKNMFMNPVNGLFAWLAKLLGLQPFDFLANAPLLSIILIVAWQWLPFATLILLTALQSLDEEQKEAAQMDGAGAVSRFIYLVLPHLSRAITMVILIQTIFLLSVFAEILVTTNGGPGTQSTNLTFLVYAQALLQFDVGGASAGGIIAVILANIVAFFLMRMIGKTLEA
T1 sequence (Q92N04 entry or part of it, further chain): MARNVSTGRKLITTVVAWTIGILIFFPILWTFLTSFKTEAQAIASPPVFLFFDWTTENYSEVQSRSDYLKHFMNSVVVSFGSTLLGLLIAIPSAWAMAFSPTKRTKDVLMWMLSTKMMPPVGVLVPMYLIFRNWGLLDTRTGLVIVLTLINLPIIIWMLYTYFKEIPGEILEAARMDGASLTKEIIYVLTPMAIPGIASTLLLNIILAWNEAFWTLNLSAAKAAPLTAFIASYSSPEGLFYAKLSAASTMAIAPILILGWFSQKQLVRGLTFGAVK
T1 sequence (Q92N02 entry or part of it): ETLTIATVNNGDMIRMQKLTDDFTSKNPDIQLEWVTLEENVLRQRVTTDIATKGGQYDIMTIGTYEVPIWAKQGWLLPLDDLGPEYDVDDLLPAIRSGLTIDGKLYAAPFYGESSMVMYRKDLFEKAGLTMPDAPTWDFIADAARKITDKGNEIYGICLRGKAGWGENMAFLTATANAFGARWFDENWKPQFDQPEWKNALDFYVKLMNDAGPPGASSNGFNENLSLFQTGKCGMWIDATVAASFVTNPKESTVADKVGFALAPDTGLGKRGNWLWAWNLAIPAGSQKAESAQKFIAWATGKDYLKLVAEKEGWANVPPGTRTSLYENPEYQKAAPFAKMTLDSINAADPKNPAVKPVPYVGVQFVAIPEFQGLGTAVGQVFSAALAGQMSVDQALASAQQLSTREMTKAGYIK
T1 sequence (Q92N05 entry or part of it, further chain): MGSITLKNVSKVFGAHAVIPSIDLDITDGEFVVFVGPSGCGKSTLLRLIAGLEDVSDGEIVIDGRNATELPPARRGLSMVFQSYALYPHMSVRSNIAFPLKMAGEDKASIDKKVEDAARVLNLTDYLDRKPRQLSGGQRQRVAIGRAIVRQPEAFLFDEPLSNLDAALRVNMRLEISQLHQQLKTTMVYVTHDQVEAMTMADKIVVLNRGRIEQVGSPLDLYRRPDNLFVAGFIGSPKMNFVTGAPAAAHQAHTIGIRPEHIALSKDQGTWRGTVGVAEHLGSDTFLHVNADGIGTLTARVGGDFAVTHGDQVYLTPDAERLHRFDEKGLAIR
T2 sequence (Q92N07 entry or part of it): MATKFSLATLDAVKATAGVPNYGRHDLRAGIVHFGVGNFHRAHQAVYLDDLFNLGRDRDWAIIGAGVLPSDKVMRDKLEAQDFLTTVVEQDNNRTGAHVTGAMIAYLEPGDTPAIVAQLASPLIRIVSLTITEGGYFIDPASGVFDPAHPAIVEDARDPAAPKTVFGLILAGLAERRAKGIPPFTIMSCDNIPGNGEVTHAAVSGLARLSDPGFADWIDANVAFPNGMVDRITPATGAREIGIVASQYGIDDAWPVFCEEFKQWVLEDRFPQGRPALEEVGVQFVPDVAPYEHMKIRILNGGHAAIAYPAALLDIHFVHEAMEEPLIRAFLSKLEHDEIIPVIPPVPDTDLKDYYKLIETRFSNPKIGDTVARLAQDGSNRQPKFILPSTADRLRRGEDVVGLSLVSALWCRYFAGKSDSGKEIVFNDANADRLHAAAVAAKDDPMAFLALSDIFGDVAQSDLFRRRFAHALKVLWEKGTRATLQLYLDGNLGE
T4 sequence (Q92N06 entry or part of it): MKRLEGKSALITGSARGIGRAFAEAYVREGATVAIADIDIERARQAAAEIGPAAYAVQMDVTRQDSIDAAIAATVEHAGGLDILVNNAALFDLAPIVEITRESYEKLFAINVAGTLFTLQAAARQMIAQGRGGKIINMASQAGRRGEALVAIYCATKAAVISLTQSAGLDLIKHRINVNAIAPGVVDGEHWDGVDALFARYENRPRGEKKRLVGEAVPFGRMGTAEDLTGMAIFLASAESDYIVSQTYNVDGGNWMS

In the case of `OC[C@@H](O)[C@@H](O)[C@H](O)[C@H](O)CO` [mannitol], at SmoEFGK [1], the “14C-mannitol uptake, wild type against smoK mutant” value is reported as “SRmD495 cells were severely compromised in their ability to transport mannitol”. For the compound `OC[C@@H](O)[C@@H](O)[C@H](O)[C@@H](O)CO` [sorbitol], the “% reduction of uptake at 2 μM” value on SmoEFGK [2] (2 µM unlabelled sorbitol) is ~ 50%.

As to `OC[C@@H](O)[C@@H](O[C@H]1O[C@H](CO)[C@@H](O)[C@H](O)[C@H]1O)[C@H](O)[C@@H](O)CO` [maltitol], the “% reduction of uptake at 10 μM” value on SmoEFGK [3] was more than 50%. Regarding `OC[C@@H](O)C(O)[C@H](O)CO` [D-arabitol], the “in-gel dehydrogenase activity stain, native PAGE” value at MtlK is given as “if D-arabitol was used as a substrate, bands that are coincident with what mannitol result”. Moreover, the “% reduction of uptake at 2 μM” value on SmoEFGK [2] (2 µM unlabelled D-arabitol) is recorded as ~ 50%. Regarding `OCC1(O)OC[C@@H](O)[C@@H](O)[C@@H]1O` (stereo partly shown) [fructose], at Frk, the “PK/LDH-coupled kinase assay, 340 nm” value was “partially purified Frk was assayed for kinase activity using fructose as a substrate”. As for `NC(=O)c1ccc[n+]([C@@H]2O[C@H](COP(=O)(O)OP(=O)(O)OC[C@H]3O[C@@H](n4cnc5c(N)ncnc54)[C@H](O)[C@@H]3O)[C@@H](O)[C@H]2O)c1` [NAD^+], the “in-gel dehydrogenase activity stain, native PAGE” value on SmoS was “smoS encodes an NAD^+-dependent sorbitol and galactitol dehydrogenase”.
